What all share (assay type): in vivo
Assay [1] has as its system Tetranychus urticae (spider mites - adult). Kind of assay: Contact test, spider mites - adult (TUa), French bean leaf. To be noted: 72 h, 3 days, read-out: TUA grading of mortality. The gist of the method:
(§1)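 Compound dissolved in acetone and diluted in water with 0.1% SYNPERONIC NX wetting agent to 100–500 ppm. Pests held on host plant or food medium, with pests and/or medium treated. Mortality scored 1–7 days after treatment.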

For assay [2], the system named is Tetranychus urticae (spider mites - ova). Kind of assay: Contact test, spider mites - ova (TUe), French bean leaf. The conditions noted are these: 144 h, 6 days, read-out: TUE grading of mortality. The gist of the method: as §1
The subject of the next assay is Myzus persicae (aphids). Nature of the assay: Contact test, aphids (MP), Chinese Cabbage leaf. To be noted: 72 h, 3 days, read-out: MP grading of mortality. The gist of the method:
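Aphids on a host plant and/or the plant itself were treated with 100–500 ppm of product, applied from acetone diluted in water containing 0.1% SYNPERONIC NX wetting agent. Mortality was scored usually one to seven days after treatment.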

In assay [3] the test system is Nilaparvata lugens (brown plant hopper - nymphs). Nature of the assay: Contact test, brown plant hopper - nymphs (NL), Rice plant. To be noted: 72 h, 3 days, read-out: NL grading of mortality. The gist of the method:
as §1

Assay [4] concerns Musca domestica (houseflies - adults). Nature of the assay: Knockdown test, houseflies - adults (MD/KD), Cotton wool/sugar. The conditions noted are these: 4 hours, read-out: MD/KD grading of knockdown. The gist of the method: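 Product was dissolved in acetone and diluted with water containing 0.1% wetting agent to 100–500 ppm. The flies and/or their food medium were treated with the preparation. Mortality was scored 1–7 days after treatment, with an additional knockdown assessment for houseflies.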

Assay [5] has the same test system. Kind of assay: Contact test, houseflies - adults (MD), Cotton wool/sugar. The conditions noted are these: 24 h, 1 day, read-out: MD grading of mortality. The gist of the method: as §1
For assay [6], the system named is Blattella germanica (cockroach nymphs). Nature of the assay: Residual test, cockroach nymphs (BG), Plastic pot. The conditions noted are these: 72 h, 3 days, read-out: BG grading of mortality. The gist of the method:
as §1

In assay [7] the test system is Heliothis virescens (tobacco budworm - larvae). Nature of the assay: Residual test, tobacco budworm - larvae (HV), Cotton leaf. To be noted: 72 h, read-out: HV grading of mortality. The gist of the method:
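Products applied as acetone solutions diluted in water with 0.1% wetting agent, at 100–500 ppm; pests on host plant or food, with pests and/or medium treated. Mortality or knockdown scored 1–7 days after treatment and graded A (80–100%), B (50–79%) or C (<50%).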

The test system of assay [8] is Spodoptera exigua (lesser army worm - larvae). Nature of the assay: Residual test, lesser army worm - larvae (SP), Cotton leaf. The conditions noted are these: 72 h, 3 days, read-out: SP grading of mortality. The gist of the method:
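Compound dissolved in acetone and diluted in water with 0.1% Synperonic NX wetting agent to 100–500 ppm. Pests on host plant or food, with pests and/or medium treated. Mortality assessed 1–7 days after treatment and graded A (80–100%), B (50–79%) or C (<50%).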

In assay [9] the test system is Diabrotica balteata (rootworm larvae). Nature of the assay: Residual test, rootworm larvae (DB), Filter paper/maize seed. To be noted: 72 h, 3 days, read-out: DB grading of mortality. The gist of the method:
as §1

In assay [10] the test system is Meloidogyne incognita (Tomato root knot eelworm - larvae). Kind of assay: Residual test, Tomato root knot eelworm - larvae (MI), Semi in-vitro. To be noted: 168 h, application rate is half that recorded, 7 days, read-out: MI grading of mortality; for mortality at 250 µg/mL: rate column 500 ppm.

Structures are written as SMILES.

As for `CCOc1ccc(C(CCCc2c(F)c(F)c(F)c(F)c2F)C(F)(F)F)cc1` (racemic) [Compound 43, 1,1,1-Trifluoro-2-(4-ethoxyphenyl)-5-(pentafluorophenyl)pentane], the mortality at 500 ppm in assay [1] is less than 50%; in assay [2] it was less than 50%; in the assay with Myzus persicae (aphids), less than 50%; in assay [3], less than 50%; in assay [5], 50 to 79%; in assay [6], 50 to 79%. Further, the results for the mortality at 500 ppm in assay [7], in assay [8] and in assay [9] were less than 50%, 80 to 100% and 80 to 100%, respectively. For the same molecule, the pest or weed control at 500 ppm in assay [4] lay in the range of 50 to 79%. Moreover, in assay [10], the mortality at 250 µg/mL is less than 50%.
As for `COCc1ccc(C(=CCCc2cccc(Oc3ccccc3)c2)C(F)(F)F)cc1` [Compound 44, 1,1,1-Trifluoro-2-(4-methoxymethylphenyl)-5-(3-phenoxyphenyl)-pent-2-ene], the mortality at 500 ppm in [1] is 80 to 100%; in assay [2], less than 50%; in the assay with Myzus persicae (aphids), less than 50%; in [3] it was less than 50%; in assay [5] it was less than 50%; in assay [6] it was less than 50%. Besides, the values for the mortality at 500 ppm in assay [7], in assay [8] and in [9] were less than 50%, 50 to 79% and less than 50%, respectively. The pest or weed control at 500 ppm in assay [4] is less than 50%. Further, the mortality at 250 µg/mL in assay [10] is less than 50%.
Take `CCOc1ccc(C(CC=Cc2cccc(Oc3ccccc3)n2)C(F)(F)F)cc1` (centres unmarked) [Compound 99, 1,1,1-Trifluoro-2-(4-ethoxyphenyl)-5-(6-phenoxypyrid-2-yl)pent-4-ene]: the mortality at 500 ppm in [1] is less than 50%; in assay [2] it was less than 50%; in the assay on Myzus persicae (aphids) it was 50 to 79%; in assay [3] it was less than 50%; in [5], 80 to 100%; in assay [6] it was less than 50%. Further, the mortality at 500 ppm is 80 to 100% in assay [7], 50 to 79% in [8] and less than 50% in [9]. Besides, in assay [4], the pest or weed control at 500 ppm lay within 80 to 100%. In addition, in assay [10], the mortality at 250 µg/mL is less than 50%.
As for `CCOc1c(F)cc(C(=CC=Cc2ccc(F)c(Oc3ccccc3)c2)C(F)(F)F)cc1F` [Compound 67, 1,1,1-Trifluoro-2-(3,5-difluoro-4-ethoxyphenyl)-5-(4-fluoro-3-phenoxyphenyl)penta-2,4-diene], the mortality at 500 ppm was less than 50% in assay [1]; less than 50% in [2]; 80 to 100% with Myzus persicae (aphids); 80 to 100% in assay [3]; less than 50% in [5]; less than 50% in assay [6]. Also, the mortality at 500 ppm in [7], in [8] and in [9] was 80 to 100% in each case. Also, the pest or weed control at 500 ppm in [4] is less than 50%. Further, the mortality at 250 µg/mL in [10] was less than 50%.
For the molecule `Fc1ccc(C=CC=C(c2ccc(OC(F)(F)F)cc2)C(F)(F)Cl)cc1Oc1ccccc1` [Compound 76, 1,1-Difluoro-1-chloro-2-(4-trifluoromethoxyphenyl)-5-(4-fluoro-3-phenoxyphenyl)penta-2,4-diene], the mortality at 500 ppm is less than 50% in [1]; less than 50% in assay [2]; less than 50% in the assay with Myzus persicae (aphids); 80 to 100% in assay [3]; less than 50% in [5]; less than 50% in assay [6]. Besides, the mortality at 500 ppm is less than 50% in [7], less than 50% in assay [8] and 80 to 100% in assay [9]. In addition, the pest or weed control at 500 ppm in [4] was less than 50%. In addition, the mortality at 250 µg/mL in assay [10] was less than 50%.
For `OC(CCCc1cccc(Oc2ccccc2)c1)(c1ccc(OC(F)(F)F)cc1)C(F)(F)F` (racemic) [Compound 59, 1,1,1-trifluoro-2-hydroxy-2-(4-trifluoromethoxyphenyl)-5-(3-phenoxyphenyl)pentane], the mortality at 500 ppm is 80 to 100% in [1]; less than 50% in [2]; less than 50% in the assay on Myzus persicae (aphids); 80 to 100% in [3]; less than 50% in assay [5]; less than 50% in assay [6]. Moreover, the mortality at 500 ppm in assay [7] was less than 50%; in [8], less than 50%; in assay [9], 80 to 100%. Moreover, the pest or weed control at 500 ppm in assay [4] is less than 50%. Also, the mortality at 250 µg/mL in assay [10] was less than 50%.
Take `CCOc1c(F)cc(C(=CCCc2cccc(Oc3ccccc3)c2)C(F)(F)F)cc1F` [Compound 51, 1,1,1-Trifluoro-2-(3,5-difluoro-4-ethoxyphenyl)-5-(3-phenoxyphenyl)pent-2-ene]: the mortality at 500 ppm in assay [1] is less than 50%; in assay [2], less than 50%; in the assay on Myzus persicae (aphids), 80 to 100%; in [3], less than 50%; in [5], 80 to 100%; in [6] it was 80 to 100%. In addition, the mortality at 500 ppm in assay [7], in assay [8] and in assay [9] was 80 to 100% in each case. For the same molecule, the pest or weed control at 500 ppm in [4] is 80 to 100%. Moreover, in [10], the mortality at 250 µg/mL was less than 50%.
With `FC(F)(F)C(=CCCc1cccc(Oc2ccccc2)c1)c1ccc2c(c1)CCC2` [Compound 48, 1,1,1-Trifluoro-2-(5-indanyl)-5-(3-phenoxyphenyl)pent-2-ene], the mortality at 250 ppm in assay [1] (250 ppm) is less than 50%; in assay [2] (250 ppm), less than 50%; in the assay with Myzus persicae (aphids) (250 ppm), less than 50%; in [3] (250 ppm), less than 50%; in assay [5] (250 ppm), less than 50%; in [6] (250 ppm) it was 50 to 79%. The mortality at 250 ppm in assay [7] was less than 50%; in [8] (250 ppm), less than 50%; in assay [9] (250 ppm), 50 to 79%. Moreover, the pest or weed control at 250 ppm in assay [4] (250 ppm) is less than 50%. In addition, in assay [10] (rate 250 ppm), the mortality at 125 µg/mL was less than 50%.
`Fc1cc(C(=CC=Cc2cccc(Oc3ccccc3)c2)C(F)(F)F)cc(F)c1OC(F)(F)F` [Compound 75, 1,1,1-Trifluoro-2-(3,5-difluoro-4-trifluoromethoxyphenyl)-5-(3-phenoxyphenyl)penta-2,4-diene]: the mortality at 500 ppm (in [1]; in [2]; in the assay on Myzus persicae (aphids); in assay [3]; in assay [5]; in assay [6]) was less than 50% in each case. The mortality at 500 ppm in assay [7], in [8] and in assay [9] was less than 50% throughout. Besides, the pest or weed control at 500 ppm in assay [4] was less than 50%. Further, the mortality at 250 µg/mL in assay [10] was less than 50%.
As to `Fc1ccc(C=CC=C(c2ccc(OC(F)(F)F)cc2)C(F)F)cc1Oc1ccccc1` [Compound 77, 1,1-difluoro-2-(4-trifluoromethoxyphenyl)-5-(4-fluoro-3-phenoxyphenyl)penta-2,4-diene], the mortality at 500 ppm is less than 50% in assay [1]; less than 50% in [2]; 80 to 100% in the assay on Myzus persicae (aphids); 80 to 100% in assay [3]; less than 50% in [5]; less than 50% in [6]. In addition, the mortality at 500 ppm in [7], in [8] and in assay [9] was 80 to 100% in each case. Besides, in [4], the pest or weed control at 500 ppm was less than 50%. Further, the mortality at 250 µg/mL in assay [10] was in the range of 50 to 69%.

The record behind these values is patent US4791139A, “Diphenyl ether derivatives and their use as insecticides” (Imperial Chemical Industries PLC, priority 1986, dated 1988).
